Data reported in patent US4363922A, “Esters of antibiotic nodusmicin” (priority 1981, dated 1982).
Values after ≈ are worked out from the molar mass of the structure shown.

tested on: S.aureus UC-570; assay: Minimum Inhibitory Concentration, microplate broth-dilution, S. aureus UC-570; conditions: Staphylococcus aureus, UC570, read-out: MIC S.aureus UC-570

Row | SMILES | MIC [µg/mL]
1 | COC1CC2C=CC3C4OC2(C(C)=CC(C)C(C(C)O)OC1=O)C3C(O)C(C)C4OC(=O)c1ccsc1 (centres unmarked) [U-60,910, 9-O-Thiophene-3-carbonyl-nodusmicin] | 0.25 (≈ 0.469 µM)
2 | COC1CC2C=CC3C4OC2(C(C)=CC(C)C(C(C)O)OC1=O)C3C(O)C(C)C4OC(=O)c1ccncc1 (centres unmarked) [U-60,925, 9-O--Isonicotinoyl] | 250 (≈ 474 µM)
3 | COC1CC2C=CC3C4OC2(C(C)=CC(C)C(C(C)O)OC1=O)C3C(O)C(C)C4OC(=O)[C@@H]1CCCN1 (stereo partly drawn) [U-60,933, 9-O--L-Pyrolyl-] | 62.5 (≈ 120 µM)
4 | COC1CC2C=CC3C4OC2(C(C)=CC(C)C(C(C)O)OC1=O)C3C(O)C(C)C4OC(=O)c1cccs1 (centres unmarked) [U-60,989, 9-O--Thiophene-2-carbonyl-] | 3.9 (≈ 7.32 µM)
5 | COC1CC2C=CC3C4OC2(C(C)=CC(C)C(C(C)O)OC1=O)C3C(O)C(C)C4OC(=O)c1ccc([N+](=O)[O-])o1 (centres unmarked) [U-60,990, 9-O--5-Nitrofuroyl] | 31.2 (≈ 55.6 µM)
6 | COC1CC2C=CC3C4OC2(C(C)=CC(C)C(C(C)O)OC1=O)C3C(O)C(C)C4OC(=O)c1cnccn1 (centres unmarked) [U-61,264, 9-O--Pyrrazine-2-carbonyl] | > 125

tested on: S.aureus UC-746; assay: Minimum Inhibitory Concentration, microplate broth-dilution, S. aureus UC-746; conditions: Staphylococcus aureus, UC746, read-out: MIC S.aureus UC-746

Row | SMILES | MIC [µg/mL]
7 | COC1CC2C=CC3C4OC2(C(C)=CC(C)C(C(C)O)OC1=O)C3C(O)C(C)C4OC(=O)c1ccsc1 (centres unmarked) [U-60,910, 9-O-Thiophene-3-carbonyl-nodusmicin] | 0.5 (≈ 0.939 µM)
8 | COC1CC2C=CC3C4OC2(C(C)=CC(C)C(C(C)O)OC1=O)C3C(O)C(C)C4OC(=O)c1ccncc1 (centres unmarked) [U-60,925, 9-O--Isonicotinoyl] | 250 (≈ 474 µM)
9 | COC1CC2C=CC3C4OC2(C(C)=CC(C)C(C(C)O)OC1=O)C3C(O)C(C)C4OC(=O)[C@@H]1CCCN1 (stereo partly drawn) [U-60,933, 9-O--L-Pyrolyl-] | 62.5 (≈ 120 µM)
10 | COC1CC2C=CC3C4OC2(C(C)=CC(C)C(C(C)O)OC1=O)C3C(O)C(C)C4OC(=O)c1cccs1 (centres unmarked) [U-60,989, 9-O--Thiophene-2-carbonyl-] | 3.9 (≈ 7.32 µM)
11 | COC1CC2C=CC3C4OC2(C(C)=CC(C)C(C(C)O)OC1=O)C3C(O)C(C)C4OC(=O)c1ccc([N+](=O)[O-])o1 (centres unmarked) [U-60,990, 9-O--5-Nitrofuroyl] | 62.5 (≈ 111 µM)
12 | COC1CC2C=CC3C4OC2(C(C)=CC(C)C(C(C)O)OC1=O)C3C(O)C(C)C4OC(=O)c1cnccn1 (centres unmarked) [U-61,264, 9-O--Pyrrazine-2-carbonyl] | > 125

tested on: S.aureus UC-76; assay: Minimum Inhibitory Concentration, microplate broth-dilution, S. aureus UC-76; conditions: Staphylococcus aureus, UC76, read-out: MIC S.aureus UC-76

Row | SMILES | MIC [µg/mL]
13 | COC1CC2C=CC3C4OC2(C(C)=CC(C)C(C(C)O)OC1=O)C3C(O)C(C)C4OC(=O)c1ccsc1 (centres unmarked) [U-60,910, 9-O-Thiophene-3-carbonyl-nodusmicin] | 0.5 (≈ 0.939 µM)
14 | COC1CC2C=CC3C4OC2(C(C)=CC(C)C(C(C)O)OC1=O)C3C(O)C(C)C4OC(=O)c1ccncc1 (centres unmarked) [U-60,925, 9-O--Isonicotinoyl] | 250 (≈ 474 µM)
15 | COC1CC2C=CC3C4OC2(C(C)=CC(C)C(C(C)O)OC1=O)C3C(O)C(C)C4OC(=O)[C@@H]1CCCN1 (stereo partly drawn) [U-60,933, 9-O--L-Pyrolyl-] | 31.2 (≈ 60 µM)
16 | COC1CC2C=CC3C4OC2(C(C)=CC(C)C(C(C)O)OC1=O)C3C(O)C(C)C4OC(=O)c1cccs1 (centres unmarked) [U-60,989, 9-O--Thiophene-2-carbonyl-] | 3.9 (≈ 7.32 µM)
17 | COC1CC2C=CC3C4OC2(C(C)=CC(C)C(C(C)O)OC1=O)C3C(O)C(C)C4OC(=O)c1ccc([N+](=O)[O-])o1 (centres unmarked) [U-60,990, 9-O--5-Nitrofuroyl] | 31.2 (≈ 55.6 µM)
18 | COC1CC2C=CC3C4OC2(C(C)=CC(C)C(C(C)O)OC1=O)C3C(O)C(C)C4OC(=O)c1cnccn1 (centres unmarked) [U-61,264, 9-O--Pyrrazine-2-carbonyl] | > 125

tested on: S.aureus UC 80; assay: Dipped disc agar diffusion assay, S. aureus; conditions: Staphylococcus aureus, UC80, 16 h, read-out: Agar Diffusion 1 mg./ml. S.aureus UC 80 (inhibition zone)

Row | SMILES | zone of inhibition at 1000 µg/mL [mm]
19 | COC1CC2C=CC3C4OC2(C(C)=CC(C)C(C(C)O)OC1=O)C3C(O)C(C)C4OC(=O)[C@@H]1CCCN1 (stereo partly drawn) [U-60,933, 9-O--L-Pyrolyl-] | 16
20 | COC1CC2C=CC3C4OC2(C(C)=CC(C)C(C(C)O)OC1=O)C3C(O)C(C)C4OC(=O)c1cccs1 (centres unmarked) [U-60,989, 9-O--Thiophene-2-carbonyl-] | 27

same assay, conditions: Staphylococcus aureus, UC80, 16 h, read-out: Agar Diffusion 1 mg./ml. S.aureus UC 80 (inhibition zone), 1 mg./ml.; 12.7 mm paper disc; 16 hours

Row | SMILES | zone of inhibition at 1000 µg/mL [mm]
21 | COC1CC2C=CC3C4OC2(C(C)=CC(C)C(C(C)O)OC1=O)C3C(O)C(C)C4OC(=O)c1ccsc1 (centres unmarked) [U-60,910, 9-O-Thiophene-3-carbonyl-nodusmicin] | 35

same assay, conditions: Staphylococcus aureus, UC80, 16 h, read-out: zone of inhibition, S. aureus, 1 mg./ml.; 0.5 inch disc; agar tray; strain not stated

Row | SMILES | zone of inhibition at 1000 µg/mL [mm]
22 | COC1CC2C=CC3C4OC2(C(C)=CC(C)C(C(C)O)OC1=O)C3C(O)C(C)C4OC(=O)c1ccsc1 (centres unmarked) [U-60,910, 9-O-Thiophene-3-carbonyl-nodusmicin] | 35

tested on: S.pyrogenes UC-152; assay: Minimum Inhibitory Concentration, microplate broth-dilution, S. pyrogenes UC-152; conditions: read-out: MIC S.pyrogenes UC-152

Row | SMILES | MIC [µg/mL]
23 | COC1CC2C=CC3C4OC2(C(C)=CC(C)C(C(C)O)OC1=O)C3C(O)C(C)C4OC(=O)c1ccncc1 (centres unmarked) [U-60,925, 9-O--Isonicotinoyl] | > 250
24 | COC1CC2C=CC3C4OC2(C(C)=CC(C)C(C(C)O)OC1=O)C3C(O)C(C)C4OC(=O)[C@@H]1CCCN1 (stereo partly drawn) [U-60,933, 9-O--L-Pyrolyl-] | > 250
25 | COC1CC2C=CC3C4OC2(C(C)=CC(C)C(C(C)O)OC1=O)C3C(O)C(C)C4OC(=O)c1cccs1 (centres unmarked) [U-60,989, 9-O--Thiophene-2-carbonyl-] | 125 (≈ 235 µM)
26 | COC1CC2C=CC3C4OC2(C(C)=CC(C)C(C(C)O)OC1=O)C3C(O)C(C)C4OC(=O)c1ccc([N+](=O)[O-])o1 (centres unmarked) [U-60,990, 9-O--5-Nitrofuroyl] | 125 (≈ 223 µM)
27 | COC1CC2C=CC3C4OC2(C(C)=CC(C)C(C(C)O)OC1=O)C3C(O)C(C)C4OC(=O)c1cnccn1 (centres unmarked) [U-61,264, 9-O--Pyrrazine-2-carbonyl] | > 125

same assay, conditions: read-out: MIC S.pyrogenes UC-152, BHI broth

Row | SMILES | MIC [µg/mL]
28 | COC1CC2C=CC3C4OC2(C(C)=CC(C)C(C(C)O)OC1=O)C3C(O)C(C)C4OC(=O)c1ccsc1 (centres unmarked) [U-60,910, 9-O-Thiophene-3-carbonyl-nodusmicin] | 125 (≈ 235 µM)

tested on: S.lutea UC-130; assay: Dipped disc agar diffusion assay, S. lutea; conditions: Micrococcus luteus, UC130, 16 h, read-out: Agar Diffusion 1 mg./ml. S.lutea UC-130 (inhibition zone)

Row | SMILES | zone of inhibition at 1000 µg/mL [mm]
29 | COC1CC2C=CC3C4OC2(C(C)=CC(C)C(C(C)O)OC1=O)C3C(O)C(C)C4OC(=O)c1ccsc1 (centres unmarked) [U-60,910, 9-O-Thiophene-3-carbonyl-nodusmicin] | 40
30 | COC1CC2C=CC3C4OC2(C(C)=CC(C)C(C(C)O)OC1=O)C3C(O)C(C)C4OC(=O)c1ccncc1 (centres unmarked) [U-60,925, 9-O--Isonicotinoyl] | 38
31 | COC1CC2C=CC3C4OC2(C(C)=CC(C)C(C(C)O)OC1=O)C3C(O)C(C)C4OC(=O)[C@@H]1CCCN1 (stereo partly drawn) [U-60,933, 9-O--L-Pyrolyl-] | 38
32 | COC1CC2C=CC3C4OC2(C(C)=CC(C)C(C(C)O)OC1=O)C3C(O)C(C)C4OC(=O)c1cccs1 (centres unmarked) [U-60,989, 9-O--Thiophene-2-carbonyl-] | 41
33 | COC1CC2C=CC3C4OC2(C(C)=CC(C)C(C(C)O)OC1=O)C3C(O)C(C)C4OC(=O)c1ccc([N+](=O)[O-])o1 (centres unmarked) [U-60,990, 9-O--5-Nitrofuroyl] | 33
34 | COC1CC2C=CC3C4OC2(C(C)=CC(C)C(C(C)O)OC1=O)C3C(O)C(C)C4OC(=O)c1cnccn1 (centres unmarked) [U-61,264, 9-O--Pyrrazine-2-carbonyl] | 27

same assay, conditions: Micrococcus luteus, UC130, 16 h, read-out: zone of inhibition, S. lutea

Row | SMILES | zone of inhibition at 1000 µg/mL [mm]
35 | COC1CC2C=CC3C4OC2(C(C)=CC(C)C(C(C)O)OC1=O)C3C(O)C(C)C4OC(=O)c1ccsc1 (centres unmarked) [U-60,910, 9-O-Thiophene-3-carbonyl-nodusmicin] | 40
